IC50 data for 48 compounds are collected here from US12522607B2, “Substituted pyrazolo[3,4-d]pyrimidines as wee-1 inhibitors” (WIGEN BIOMEDICINE TECHNOLOGY (SHANGHAI) CO., LTD., priority 2020, dated 2026).

Each structure is given as a SMILES string.

In one experiment the target is T1, Wee-1 kinase (Homo sapiens, UniProt P30291).
T1 construct: purchased Invitrogen
As to the kind of experiment: Inhibitory activity against Wee-1 kinase (Lanthra Screen Wee-1 kinase kit, Tracer 178). The following applies: Wee-1 kinase 5 nM, Tracer 178 50 nM, 1 h room temperature. In kind it is binding. The procedure, abridged: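 LanthaScreen binding format: Wee-1 kinase (5 nM final) with Eu-anti-GST antibody (2 nM final) and kinase Tracer 178 (50 nM final), compounds serially diluted in DMSO. 1 h at room temperature before reading. IC50 relative to DMSO control.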

In a further experiment the test system is HT29 cells. The experiment can be described thus: Antiproliferative activity against HT29 cells (Cell Titer-Lumi, ATP content). In kind it is cell-based. To be noted: Homo sapiens, HT-29, 72 after compound addition, read-out: HT-29 cells Anti-proliferative activity (IC50 for the inhibition against HT-29 cell growth). The essentials:
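3000 cells per well, allowed to adhere overnight, then exposed to a gradient dilution of compound for 72 (units as printed). Cellular ATP read by luminescence (Cell Titer-Lumi) as a growth measure; IC50 for growth inhibition calculated.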

T1 sequence (P30291 whole entry): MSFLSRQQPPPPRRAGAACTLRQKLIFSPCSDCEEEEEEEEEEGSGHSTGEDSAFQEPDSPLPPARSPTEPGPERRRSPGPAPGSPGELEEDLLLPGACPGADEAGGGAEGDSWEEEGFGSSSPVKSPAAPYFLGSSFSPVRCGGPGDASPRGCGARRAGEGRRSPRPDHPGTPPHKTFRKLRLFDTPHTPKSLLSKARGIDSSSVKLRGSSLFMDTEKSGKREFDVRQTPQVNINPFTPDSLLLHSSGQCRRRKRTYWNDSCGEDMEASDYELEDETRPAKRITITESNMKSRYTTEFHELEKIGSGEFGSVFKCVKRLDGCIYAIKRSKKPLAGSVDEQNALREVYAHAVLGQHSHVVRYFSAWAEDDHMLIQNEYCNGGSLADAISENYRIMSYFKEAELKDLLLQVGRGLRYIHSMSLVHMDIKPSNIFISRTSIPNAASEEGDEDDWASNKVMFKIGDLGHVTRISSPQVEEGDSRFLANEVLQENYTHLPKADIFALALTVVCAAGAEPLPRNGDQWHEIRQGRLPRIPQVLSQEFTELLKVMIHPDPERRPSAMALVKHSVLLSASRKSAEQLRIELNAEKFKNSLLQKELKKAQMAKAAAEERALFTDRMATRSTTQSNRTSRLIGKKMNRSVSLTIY

For orientation: IC50 means the midpoint of a concentration-inhibition curve. `C=CCn1c(=O)c2cnc(Nc3ccc(N4CCN(C)CC4)cc3)nc2n1-c1ccc(=O)n(C2COC2)n1` [Compound 14]: the values for the IC50 on Wee-1 kinase and in the experiment with HT29 cells were 30 to 100 nM and more than 3000 nM, respectively.
For `C=CCn1c(=O)c2cnc(Nc3ccc(N4CCC(C)(N(C)C)CC4)c(OC)c3)nc2n1-c1ccc(=O)n(C(C)C)n1` [Compound 115] the same measures were not above 30 nM and not above 1000 nM.
For `C=CCn1c(=O)c2cnc(Nc3ccc(N4CCC5(CCN(C)CC5)CC4)cc3)nc2n1-c1ccc(=O)n(C(C)C)n1` [Compound 184] the same measures were not above 30 nM and not above 1000 nM.
The corresponding values for `C=CCn1c(=O)c2cnc(Nc3ccc(N4CCC5(CNC5)C4)c(OC)c3)nc2n1-c1ccc(=O)n(C(C)C)n1` [Compound 171] are not above 30 nM and not above 1000 nM.
Consider `C=CCn1c(=O)c2cnc(Nc3ccc(N4CCN(C)CC4)cc3)nc2n1-c1ccc(=O)n(C(C)(C)COC)n1` [Compound 19], for which the IC50 against Wee-1 kinase is not above 30 nM; with HT29 cells it was 1000 to 3000 nM.
For `C=CCn1c(=O)c2cnc(Nc3ccc4c(c3)C(C)(C)CN(C)C4)nc2n1-c1ccc(=O)n(C(C)C)n1` [Compound 244], the results for the IC50 on Wee-1 kinase and in the experiment with HT29 cells were not above 30 nM and not above 1000 nM, respectively.
As for `C=CCn1c(=O)c2cnc(Nc3ccc4c(c3)CNC4(C)C)nc2n1-c1ccc(=O)n(C(C)C)n1` [Compound 223], the IC50 was not above 30 nM against Wee-1 kinase and not above 1000 nM with HT29 cells.
For `Cc1cc(Nc2ncc3c(=O)n(C(C)C)n(-c4ccc(=O)n(C(C)(C)C)c4)c3n2)ccc1N1CCN(C)CC1` [Compound 335] the same measures were not above 30 nM and not above 1000 nM.
For `C=CCn1c(=O)c2cnc(Nc3ccc(N4CCC(C)(N)CC4)c(C)c3)nc2n1-c1ccc(=O)n(C(C)C)n1` [Compound 108] the same measures were not above 30 nM and not above 1000 nM.
As for `C=CCn1c(=O)c2cnc(Nc3ccc(N4CCC5(CC4)CNC5)cc3)nc2n1-c1ccc(=O)n(C(C)C)n1` [Compound 175], the values for the concentration for half-maximal inhibition (IC50) against Wee-1 kinase and in the experiment with HT29 cells were not above 30 nM and 1000 to 3000 nM, respectively.
The corresponding values for `Cc1cc(Nc2ncc3c(=O)n(C4CC4)n(-c4cc(F)c(=O)n(C(C)C)c4)c3n2)ccc1N1CCN(C)CC1` [Compound 324] are not above 30 nM and not above 1000 nM.
The corresponding values for `C=CCn1c(=O)c2cnc(Nc3cc(Cl)cc(C4CCN(C)CC4)c3)nc2n1-c1ccc(=O)n(C(C)C)n1` [Compound 211] are not above 30 nM and not above 1000 nM.
For `CCn1c(=O)c2cnc(Nc3ccc(N4CCN(C)CC4)c(C)c3)nc2n1-c1cc(F)c(=O)n(C(C)C)c1` [Compound 316] the same measures were not above 30 nM and not above 1000 nM.
As for `C=CCn1c(=O)c2cnc(Nc3ccc(N4CC5(CN(C)C5)C4)c(OC)c3)nc2n1-c1ccc(=O)n(C(C)C)n1` [Compound 159], the IC50 was not above 30 nM on Wee-1 kinase and not above 1000 nM in the experiment on HT29 cells.
The corresponding values for `C=CCn1c(=O)c2cnc(Nc3ccc(C4CCNCC4)c(CC(F)(F)F)c3)nc2n1-c1ccc(=O)n(C(C)C)n1` [Compound 198] are not above 30 nM and not above 1000 nM.
For `C=CCn1c(=O)c2cnc(Nc3cc(F)cc(N4CCNCC4)c3)nc2n1-c1ccc(=O)n(C(C)C)n1` [Compound 71] the same measures were not above 30 nM and not above 1000 nM.
The corresponding values for `C=CCn1c(=O)c2cnc(Nc3ccc(N4CCC(N5CCOCC5)CC4)c(OC)c3)nc2n1-c1ccc(=O)n(C(C)C)n1` [Compound 150] are not above 30 nM and not above 1000 nM.
Consider `CN1CCN(c2ccc(Nc3ncc4c(=O)n(C5CC5)n(-c5ccc(=O)n(C(C)(C)C)c5)c4n3)cc2)CC1` [Compound 338], for which the IC50 is not above 30 nM against Wee-1 kinase and not above 1000 nM in the experiment with HT29 cells.
For `C=CCn1c(=O)c2cnc(Nc3ccc(C4CCNCC4)c(C(F)(F)F)c3)nc2n1-c1ccc(=O)n(C(C)C)n1` [Compound 196] the same measures were not above 30 nM and not above 1000 nM.
For `C=CCn1c(=O)c2cnc(Nc3ccc(N4CCC(N5CCN(C)CC5)CC4)c(C)c3)nc2n1-c1ccc(=O)n(C(C)C)n1` [Compound 143] the same measures were not above 30 nM and not above 1000 nM.
The corresponding values for `C=CCn1c(=O)c2cnc(Nc3cc(F)cc(C4CCNCC4)c3)nc2n1-c1ccc(=O)n(C(C)C)n1` [Compound 208] are not above 30 nM and not above 1000 nM.
Turning to `C=CCn1c(=O)c2cnc(Nc3ccc4c(c3)CNC4)nc2n1-c1ccc(=O)n(C(C)C)n1` [Compound 221], the IC50 at Wee-1 kinase is not above 30 nM; in the experiment on HT29 cells, 1000 to 3000 nM.
The corresponding values for `C=CCn1c(=O)c2cnc(Nc3ccc(N4CCC(NC)CC4)cc3)nc2n1-c1ccc(=O)n(C(C)C)n1` [Compound 104] are not above 30 nM and not above 1000 nM.
The corresponding values for `C=CCn1c(=O)c2cnc(Nc3ccc(C4CCN(C)CC4)c(OC)c3)nc2n1-c1ccc(=O)n(C(C)C)n1` [Compound 195] are not above 30 nM and not above 1000 nM.
The corresponding values for `C=CCn1c(=O)c2cnc(Nc3ccc(N4CC5(CCNCC5)C4)c(C)c3)nc2n1-c1ccc(=O)n(C(C)C)n1` [Compound 167] are 30 to 100 nM and 1000 to 3000 nM.
Regarding `C=CCn1c(=O)c2cnc(Nc3cccc(N4CCNCC4)c3)nc2n1-c1ccc(=O)n(C(C)C)n1` [Compound 67], the IC50 was not above 30 nM on Wee-1 kinase and not above 1000 nM with HT29 cells.
For `C=CCn1c(=O)c2cnc(Nc3cc(Cl)cc(N4CCNCC4)c3)nc2n1-c1ccc(=O)n(C(C)C)n1` [Compound 73] the same measures were not above 30 nM and not above 1000 nM.
The corresponding values for `C=CCn1c(=O)c2cnc(Nc3ccc(N4CCC(N)CC4)cc3)nc2n1-c1ccc(=O)n(C(C)C)n1` [Compound 101] are not above 30 nM and 1000 to 3000 nM.
`C=CCn1c(=O)c2cnc(Nc3ccc4c(c3)CN(C)CC43CC3)nc2n1-c1ccc(=O)n(C(C)C)n1` [Compound 232]: the IC50 is not above 30 nM against Wee-1 kinase and not above 1000 nM with HT29 cells.
On to `C=CCn1c(=O)c2cnc(Nc3cc(C)cc(C4CCNCC4)c3)nc2n1-c1ccc(=O)n(C(C)C)n1` [Compound 206], for which the values for the IC50 at Wee-1 kinase and in the experiment with HT29 cells were not above 30 nM and not above 1000 nM, respectively.
Consider `C=CCn1c(=O)c2cnc(Nc3ccc(N4CCN[C@@H](C)C4)cc3)nc2n1-c1ccc(=O)n(C(C)C)n1` [Compound 128], for which the figures for the IC50 at Wee-1 kinase and in the experiment with HT29 cells were not above 30 nM and not above 1000 nM, respectively.
The corresponding values for `CCn1c(=O)c2cnc(Nc3ccc(N4CCN(C)CC4)c(C)c3)nc2n1-c1ccc(=O)n(C(C)C)n1` [Compound 275] are not above 30 nM and not above 1000 nM.
For `CC(C)n1cc(-n2c3nc(Nc4ccc5c(c4)CN(C)CC54CC4)ncc3c(=O)n2C2CC2)cc(F)c1=O` [Compound 326] the same measures were not above 30 nM and not above 1000 nM.
The corresponding values for `C=CCn1c(=O)c2cnc(Nc3ccc(N4C[C@@H](C)N[C@@H](C)C4)cc3)nc2n1-c1ccc(=O)n(C(C)C)n1` [Compound 116] are not above 30 nM and not above 1000 nM.
In the case of `C=CCn1c(=O)c2cnc(Nc3cccc(N4CCN(C)CC4)c3)nc2n1-c1ccc(=O)n(C(C)C)n1` [Compound 68], the figures for the IC50 on Wee-1 kinase and in the experiment with HT29 cells were not above 30 nM and not above 1000 nM, respectively.
The corresponding values for `C=CCn1c(=O)c2cnc(Nc3ccc(N4CCN(C)CC4)c(OC)c3)nc2n1-c1ccc(=O)n(C(C)C)c1` [Compound 48] are not above 30 nM and not above 1000 nM.
For `C=CCn1c(=O)c2cnc(Nc3ccc(N4CCN(C)CC4)c(C)c3)nc2n1-c1ccc(=O)n(C(C)(C)C)n1` [Compound 281] the same measures were not above 30 nM and not above 1000 nM.
Turning to `C=CCn1c(=O)c2cnc(Nc3ccc(N4CC5(CNC5)C4)cc3)nc2n1-c1ccc(=O)n(C(C)C)n1` [Compound 154], the IC50 against Wee-1 kinase is not above 30 nM; in the experiment with HT29 cells it was 1000 to 3000 nM.
The corresponding values for `C=CCn1c(=O)c2cnc(Nc3cc(Cl)c(N4CCN(C)CC4)c(OC)c3)nc2n1-c1ccc(=O)n(C(C)C)n1` [Compound 66] are not above 30 nM and not above 1000 nM.
Consider `C=CCn1c(=O)c2cnc(Nc3ccc(C4CCNCC4)cc3)nc2n1-c1ccc(=O)n(C(C)C)n1` [Compound 190], for which the figures for the IC50 on Wee-1 kinase and in the experiment on HT29 cells were not above 30 nM and not above 1000 nM, respectively.
Regarding `C=CCn1c(=O)c2cnc(Nc3ccc(C4CCN(C)CC4)cc3)nc2n1-c1ccc(=O)n(C(C)C)n1` [Compound 191], the IC50 was not above 30 nM against Wee-1 kinase and not above 1000 nM with HT29 cells.
For `CC(C)n1cc(-n2c3nc(Nc4ccc(N5CCN(C)CC5)cc4)ncc3c(=O)n2C2CC2)cc(F)c1=O` [Compound 323] the same measures were not above 30 nM and not above 1000 nM.
The corresponding values for `C=CCn1c(=O)c2cnc(Nc3cc(Cl)c(N4CCN(C)CC4)c(Cl)c3)nc2n1-c1ccc(=O)n(C(C)C)n1` [Compound 62] are not above 30 nM and not above 1000 nM.
For `C=CCn1c(=O)c2cnc(Nc3cc(Cl)cc(C4CCNCC4)c3)nc2n1-c1ccc(=O)n(C(C)C)n1` [Compound 210] the same measures were not above 30 nM and not above 1000 nM.
Regarding `C=CCn1c(=O)c2cnc(Nc3ccc(N4CCN(C5CCN(C)CC5)CC4)c(F)c3)nc2n1-c1ccc(=O)n(C(C)C)n1` [Compound 140], the values for the IC50 on Wee-1 kinase and in the experiment on HT29 cells were not above 30 nM and not above 1000 nM, respectively.
As for `C=CCn1c(=O)c2cnc(Nc3cc(Cl)c(N4CCNCC4)c(OC)c3)nc2n1-c1ccc(=O)n(C(C)C)n1` [Compound 65], the half-maximal inhibitory concentration (IC50) against Wee-1 kinase was not above 30 nM; in the experiment on HT29 cells, not above 1000 nM.
With `C=CCn1c(=O)c2cnc(Nc3ccc(N4CCC5(CCN(C)CC5)CC4)c(C)c3)nc2n1-c1ccc(=O)n(C(C)C)n1` [Compound 185], the figures for the concentration for half-maximal inhibition (IC50) on Wee-1 kinase and with HT29 cells were not above 30 nM and not above 1000 nM, respectively.
The corresponding values for `C=CCn1c(=O)c2cnc(Nc3ccc(N4CCC(N5CCOCC5)CC4)cc3)nc2n1-c1ccc(=O)n(C(C)C)n1` [Compound 148] are not above 30 nM and not above 1000 nM.
